According to patent EP0324390A2, “Nigericin derivatives, method for their preparation, compositions containing them and use of these compositions” (priority 1988, dated 1989):
Values after ≈ are worked out from the molar mass of the structure shown.

Key:
Test in all cases: Agar dilution test according to Lorian (antibacterial activity)
Format in all cases: cell-based
Staph. aureus (503) = tested on: Staph. aureus (503)
Description: (§1) Die antibakterielle Wirksamkeit der erfindungsgemäßen Verbindungen wurde im Agar-Verdünnungstest nach Lorian (Antibiotics in Laboratory Medicine, Williams & Wilkins, Baltimore/London, 1980) bestimmt. Dabei wurden die Präparate in einer geometrischen Verdünnungsreihe mit dem Faktor 2 in Müller Hinton Agar verdünnt. Eine Petrischale enthielt nur Müller Hinton Agar und diente zur Kontrolle des Bakterienwachstums. Die Petrischalen wurden dann mit einem Denley-Multipoint-Inokulator, welcher 0,6 ul einer 1 : 100 verdünnten 18-Stunden-Kultur der Testbakterien übertrug, mit den entsprechenden Testbakterien beimpft. Nach 16 bis 18 Stunden Inkubation bei 37^. C wurden die Petrischalen makroskopisch auf Bakterienwachstum untersucht.
(§2) Die niedrigste Konzentration der erfindungsgemäßen Verbindungen, welche das Bakterienwachstum noch vollständig verhinderte, wurde als MIC (Minimum Inhibitory Concentration) angenommen.
(§3) In Tabelle 4 ist die Wirkung (Angabe des MIC in µg/ml) von verschiedenen erfindungsgemäßen Verbindungen gegen folgende Bakterien aufgeführt: • Staph. aureus (SG 511), Staph. aureus (285), Staph. aureus (503), Strept. pyogenes (308 A), Strept pyogenes (77 A), Strept. faecium (D).

Staph. aureus (285) = tested on: Staph. aureus (285)
Description: as §1, §2, §3

Strept. faecium (D) = tested on: Strept. faecium (D)
Description: as §1, §2, §3

Staph. aureus (SG 511) = tested on: Staph. aureus (SG 511)
Description: as §1, §2, §3

Strept. pyogenes (77 A) = tested on: Strept. pyogenes (77 A)
Description: as §1, §2, §3

Strept. pyogenes (308 A) = tested on: Strept. pyogenes (308 A)
Description: as §1, §2, §3

[1] = Müller Hinton Agar, 16 to 18 h at 37 C, lowest concentration fully preventing growth

| Compound | MIC (Staph. aureus (503); [1]) | MIC (Staph. aureus (285); [1]) | MIC (Strept. faecium (D); [1]) | MIC (Staph. aureus (SG 511); [1]) | MIC (Strept. pyogenes (77 A); [1]) | MIC (Strept. pyogenes (308 A); [1]) | MIC (Staph. aureus (503); Staphylococcus aureus) | MIC (Staph. aureus (285); Staphylococcus aureus) | MIC (Strept. faecium (D); Enterococcus faecium) | MIC (Staph. aureus (SG 511); Staphylococcus aureus) | MIC (Strept. pyogenes (77 A); Streptococcus pyogenes) | MIC (Strept. pyogenes (308 A); Streptococcus pyogenes) |
| --- | --- | --- | --- | --- | --- | --- | --- | --- | --- | --- | --- | --- |
| COC1CC(CC2CCC(C)C(C(C)C(=O)O)O2)OC2(OC(C)(C3CCC(C)(C4OC(C5OC(O)(COS(C)(=O)=O)C(C)CC5C)CC4C)O3)CC2C)C1C (stereo not drawn) [Beispiel 2] | 0,049 µg/ml | 0,049 µg/ml | 0,195 µg/ml | 0,098 µg/ml | 0,013 µg/ml | 0,004 µg/ml | – | – | – | – | – | – |
| COC1CC(CC2CCC(C)C(C(C)C(=O)O)O2)OC2(OC(C)(C3CCC(C)(C4OC(C5OC(O)(COC(=O)COc6ccccc6)C(C)CC5C)CC4C)O3)CC2C)C1C (stereo not drawn) [Beispiel 3] | 0,391 µg/ml | 0,391 µg/ml | 0,781 µg/ml | 0,391 µg/ml | 0,049 µg/ml | 0,049 µg/ml | – | – | – | – | – | – |
| COC1CC(CC2CCC(C)C(C(C)C(=O)O)O2)OC2(OC(C)(C3CCC(C)(C4OC(C5OC(O)(COC(=O)CCOc6ccccc6)C(C)CC5C)CC4C)O3)CC2C)C1C (stereo not drawn) [Beispiel 4] | 0,78 µg/ml | 1,56 µg/ml | 1,56 µg/ml | 0,78 µg/ml | 0,098 µg/ml | 0,098 µg/ml | – | – | – | – | – | – |
| COC1CC(CC2CCC(C)C(C(C)C(=O)O)O2)OC2(OC(C)(C3CCC(C)(C4OC(C5OC(O)(COC(C)=O)C(C)CC5C)CC4C)O3)CC2C)C1C (stereo not drawn) [Beispiel 5] | 0,391 µg/ml | 0,391 µg/ml | 0,781 µg/ml | 0,391 µg/ml | 0,098 µg/ml | 0,098 µg/ml | – | – | – | – | – | – |
| COC1CC(CC2CCC(C)C(C(C)C(=O)O)O2)OC2(OC(C)(C3CCC(C)(C4OC(C5OC(O)(COC(=O)c6ccccc6)C(C)CC5C)CC4C)O3)CC2C)C1C (stereo not drawn) [Beispiel 6] | 0,098 µg/ml | 0,391 µg/ml | 0,391 µg/ml | 0,098 µg/ml | 0,013 µg/ml | 0,013 µg/ml | – | – | – | – | – | – |
| COC1CC(CC2CCC(C)C(C(C)C(=O)O)O2)OC2(OC(C)(C3CCC(C)(C4OC(C5OC(O)(COC(=O)Cc6ccccc6)C(C)CC5C)CC4C)O3)CC2C)C1C (stereo not drawn) [Beispiel 7] | 0,195 µg/ml | 0,391 µg/ml | 0,391 µg/ml | 0,195 µg/ml | 0,004 µg/ml | 0,004 µg/ml | – | – | – | – | – | – |
| COC1CC(CC2CCC(C)C(C(C)C(=O)O)O2)OC2(OC(C)(C3CCC(C)(C4OC(C5OC(O)(COC(=O)c6ccco6)C(C)CC5C)CC4C)O3)CC2C)C1C (stereo not drawn) [Beispiel 8] | 0,195 µg/ml | 0,391 µg/ml | 0,391 µg/ml | 0,195 µg/ml | 0,013 µg/ml | 0,013 µg/ml | – | – | – | – | – | – |
| COC1CC(CC2CCC(C)C(C(C)C(=O)O)O2)OC2(OC(C)(C3CCC(C)(C4OC(C5OC(O)(COC(=O)c6cccs6)C(C)CC5C)CC4C)O3)CC2C)C1C (stereo not drawn) [Beispiel 9] | 0,049 µg/ml | 0,195 µg/ml | 0,195 µg/ml | 0,049 µg/ml | 0,007 µg/ml | 0,007 µg/ml | – | – | – | – | – | – |
| CCCCCCCCCCCC(=O)OCC1(O)OC(C2CC(C)C(C3(C)CCC(C4(C)CC(C)C5(OC(CC6CCC(C)C(C(C)C(=O)O)O6)CC(OC)C5C)O4)O3)O2)C(C)CC1C (stereo not drawn) [Beispiel 10] | 3,13 µg/ml | 6,25 µg/ml | 6,25 µg/ml | 6,25 µg/ml | 0,781 µg/ml | 0,781 µg/ml | – | – | – | – | – | – |
| COC1CC(CC2CCC(C)C(C(C)C(=O)O)O2)OC2(OC(C)(C3CCC(C)(C4OC(C5OC(O)(COC(=O)CCC(=O)O)C(C)CC5C)CC4C)O3)CC2C)C1C (stereo not drawn) [Beispiel 11] | 0,098 µg/ml | 0,195 µg/ml | 0,391 µg/ml | 0,391 µg/ml | 0,025 µg/ml | 0,025 µg/ml | – | – | – | – | – | – |
| COC1CC(CC2CCC(C)C(C(C)C(=O)O)O2)OC2(OC(C)(C3CCC(C)(C4OC(C5OC(O)(COC(=O)Nc6ccccc6)C(C)CC5C)CC4C)O3)CC2C)C1C (stereo not drawn) [Beispiel 12] | 0,78 µg/ml | 3,13 µg/ml | 1,56 µg/ml | 0,781 µg/ml | 0,098 µg/ml | 0,098 µg/ml | – | – | – | – | – | – |
| COC1CC(CC2CCC(C)C(C(C)C(=O)O)O2)OC2(OC(C)(C3CCC(C)(C4OC(C5OC(O)(COC(=O)NCc6ccccc6)C(C)CC5C)CC4C)O3)CC2C)C1C (stereo not drawn) [Beispiel 13] | 3,13 µg/ml | 6,25 µg/ml | 12,5 µg/ml | 3,13 µg/ml | 0,39 µg/ml | 0,78 µg/ml | – | – | – | – | – | – |
| COC1CC(CC2CCC(C)C(C(C)C(=O)O)O2)OC2(OC(C)(C3CCC(C)(C4OC(C5OC(O)(COC(=O)Nc6ccc(Cl)cc6)C(C)CC5C)CC4C)O3)CC2C)C1C (stereo not drawn) [Beispiel 14] | 50,0 µg/ml | 100,0 µg/ml | 100,0 µg/ml | 100,0 µg/ml | 12,5 µg/ml | 25,0 µg/ml | – | – | – | – | – | – |
| COC1CC(CC2CCC(C)C(C(C)C(=O)O)O2)OC2(OC(C)(C3CCC(C)(C4OC(C5OC(O)(COS(=O)(=O)O)C(C)CC5C)CC4C)O3)CC2C)C1C (stereo not drawn) [Beispiel 15] | 0,78 µg/ml | 1,56 µg/ml | 3,13 µg/ml | 1,56 µg/ml | 0,78 µg/ml | 1,56 µg/ml | – | – | – | – | – | – |
| COC1CC(CC2CCC(C)C(C(C)C(=O)O)O2)OC2(OC(C)(C3CCC(C)(C4OC(C5OC(CO)(OC)C(C)CC5C)CC4C)O3)CC2C)C1C (stereo not drawn) [Beispiel 16] | 1,56 µg/ml | 1,56 µg/ml | 3,13 µg/ml | 1,56 µg/ml | 0,39 µg/ml | 0,39 µg/ml | – | – | – | – | – | – |
| CCOC1(CO)OC(C2CC(C)C(C3(C)CCC(C4(C)CC(C)C5(OC(CC6CCC(C)C(C(C)C(=O)O)O6)CC(OC)C5C)O4)O3)O2)C(C)CC1C (stereo not drawn) [Beispiel 17] | 0,78 µg/ml | 1,56 µg/ml | 1,56 µg/ml | 1,56 µg/ml | 0,098 µg/ml | 0,098 µg/ml | – | – | – | – | – | – |
| COC1CC(CC2CCC(C)C(C(C)C(=O)O)O2)OC2(OC(C)(C3CCC(C)(C4OC(C5OC(COS(C)(=O)=O)(OC)C(C)CC5C)CC4C)O3)CC2C)C1C (stereo not drawn) [Beispiel 20] | – | – | – | – | – | – | 12.5 µg/mL (≈ 15.3 µM) | 25 µg/mL (≈ 30.6 µM) | 25 µg/mL (≈ 30.6 µM) | 25 µg/mL (≈ 30.6 µM) | 6.25 µg/mL (≈ 7.65 µM) | 6.25 µg/mL (≈ 7.65 µM) |
| COC1CC(CC2CCC(C)C(C(C)C(=O)O)O2)OC2(OC(C)(C3CCC(C)(C4OC(C5OC(O)(COC(=O)C=C(C)C(=O)O)C(C)CC5C)CC4C)O3)CC2C)C1C (stereo not drawn) [Beispiel 22] | – | – | – | – | – | – | 6.25 µg/mL (≈ 7.47 µM) | 6.25 µg/mL (≈ 7.47 µM) | 6.25 µg/mL (≈ 7.47 µM) | 6.25 µg/mL (≈ 7.47 µM) | 0.78 µg/mL (≈ 0.932 µM) | 0.78 µg/mL (≈ 0.932 µM) |
| COC1CC(CC2CCC(C)C(C(C)C(=O)O)O2)OC2(OC(C)(C3CCC(C)(C4OC(C5OC(O)(COC(=O)C=CC(=O)O)C(C)CC5C)CC4C)O3)CC2C)C1C (stereo not drawn) [Beispiel 23] | – | – | – | – | – | – | – | – | 0.39 µg/mL (≈ 0.474 µM) | – | – | – |
| COC1CC(CC2CCC(C)C(C(C)C(=O)O)O2)OC2(OC(C)(C3CCC(C)(C4OC(C5OC(O)(COC(=O)C(C)C)C(C)CC5C)CC4C)O3)CC2C)C1C (stereo not drawn) [Beispiel 27] | – | – | – | – | – | – | 0.19 µg/mL (≈ 0.239 µM) | 0.39 µg/mL (≈ 0.491 µM) | > 100 µg/mL | 0.39 µg/mL (≈ 0.491 µM) | – | – |
| COC1CC(CC2CCC(C)C(C(C)C(=O)O)O2)OC2(OC(C)(C3CCC(C)(C4OC(C5OC(O)(COC(=O)c6c(Br)c(Br)c(Br)c(Br)c6C(=O)O)C(C)CC5C)CC4C)O3)CC2C)C1C (stereo not drawn) [Beispiel 29] | – | – | – | – | – | – | 1.56 µg/mL (≈ 1.31 µM) | 3.13 µg/mL (≈ 2.63 µM) | 3.13 µg/mL (≈ 2.63 µM) | 1.56 µg/mL (≈ 1.31 µM) | – | – |
| CCCCCCCCCCCCCCCCCCCCCC(=O)OCC1(O)OC(C2CC(C)C(C3(C)CCC(C4(C)CC(C)C5(OC(CC6CCC(C)C(C(C)C(=O)O)O6)CC(OC)C5C)O4)O3)O2)C(C)CC1C (stereo not drawn) [Beispiel 30] | – | – | – | – | – | – | 50 µg/mL (≈ 47.7 µM) | 100 µg/mL (≈ 95.5 µM) | 100 µg/mL (≈ 95.5 µM) | 100 µg/mL (≈ 95.5 µM) | 25 µg/mL (≈ 23.9 µM) | 25 µg/mL (≈ 23.9 µM) |
| COC1CC(CC2CCC(C)C(C(C)C(=O)O)O2)OC2(OC(C)(C3CCC(C)(C4OC(C5OC(O)(COC(=O)c6ccccc6C(=O)O)C(C)CC5C)CC4C)O3)CC2C)C1C (stereo not drawn) [Beispiel 31] | – | – | – | – | – | – | 0.78 µg/mL (≈ 0.893 µM) | 0.78 µg/mL (≈ 0.893 µM) | – | 0.78 µg/mL (≈ 0.893 µM) | – | – |
| COC1CC(CC2CCC(C)C(C(C)C(=O)[O-])O2)OC2(OC(C)(C3CCC(C)(C4OC(C5OC(O)(CO)C(C)CC5C)CC4C)O3)CC2C)C1C.[K+] (stereo not drawn) [Beispiel 34] | < 0,002 µg/ml | 0,025 µg/ml | 0,098 µg/ml | 0,025 µg/ml | < 0,002 µg/ml | < 0,002 µg/ml | – | – | – | – | – | – |
| COC1CC(CC2CCC(C)C(C(C)C(=O)[O-])O2)OC2(OC(C)(C3CCC(C)(C4OC(C5OC(O)(COC(=O)CCC(=O)[O-])C(C)CC5C)CC4C)O3)CC2C)C1C.[Mg+2] (stereo not drawn) [Beispiel 37] | 0,049 µg/ml | 0,098 µg/ml | 0,098 µg/ml | 0,098 µg/ml | 0,007 µg/ml | 0,007 µg/ml | – | – | – | – | – | – |
